The text below walks through data of patent US8557225B2, “Solution and method for cleaning tooth enamel” (priority 2008, dated 2013).

SMILES strings stand for the structures.

Assay [1] is described as follows: citric acid solution applied over the enamel. The conditions noted are these: 6% citric acid in the improved solution, over the teeth enamel. The assay is classed as in vivo. An excerpt: Citric acid as incorporated in the present disclosure is an irrigating substance classified as a chelating agent which, due to its low pH, reacts with the metallic ions in the hydroxyapatite crystals in order to produce a metallic chelating agent which reacts with the chelating agent's terminal groups when removing calcium ions of the dentine, forming a ring. The dentine softens changing the solubility and permeability aspects of the tissue, especially the peritubular dentine, rich in hydroxyapatite, increasing the diameter of the exposed dental tubes. These chelating agent properties also provide a great affinity as thus used due to ferrous alkali characteristics of the dental structure. Also, this chelating agent is naturally found inside the body, thus making it biologically more acceptable than other acids. Citric acid is effective in altering the hydroxyapatite solubility; it has been used in several concentrations, from 0.6 up to 50% by weight. Its effect is very fast and it only requires five seconds to apply a 6% solution over the enamel to remove the undesired dental covering.
This action is favorably strengthened when citric acid (C6O7H8) is included in the composition at the approximate 6% (weight percent) level. (Tables 1 and 2). […]

For assay [2] the following is noted: 6% solution applied over the enamel; cited from earlier work.

Regarding `O=C(O)CC(O)(CC(=O)O)C(=O)O` [Citric acid, citric acid], the “time required after applying for dissolving the organic matter” value in assay [1] is “thirty seconds”. In addition, the “time required to remove the undesired dental covering” value in assay [2] is “five seconds”.
